Experimental data published in patent US6998415B2, “Substituted sulfonylphenylheterocycles as cyclooxygenase-2 and 5-lipoxygenase inhibitors” (Pharmacia Corporation, priority 1996, dated 2006).

Key:
[1] = target: COX-1 (UniProt P23219); test: Assay for COX-1 activity in vitro (PGE2 ELISA, recombinant enzyme); format: biochemical, human or murine; settings: recombinant COX-1, arachidonic acid 10 μM, pre-incubation 10–20 minutes
Experimental: Evaluation of COX-1 and COX-2 Activity in vitro a. Preparation of Recombinant COX Baculoviruses
(§1) Recombinant COX-1 and COX-2 were prepared as described by Gierse et al, [J. Biochem., 305, 479–84 (1995)]. A 2.0 kb fragment containing the coding region of either human or murine COX-1 or human or murine COX-2 was cloned into a BamHI site of the baculovirus transfer vector pVL1393 (Invitrogen) to generate the baculovirus transfer vectors for COX-1 and COX-2 in a manner similar to the method of D. R. O'Reilly et al (Baculovirus Expression Vectors: A Laboratory Manual (1992)). Recombinant baculoviruses were isolated by transfecting 4 μg of baculovirus transfer vector DNA into SF9 insect cells (2×10^8) along with 200 ng of linearized baculovirus plasmid DNA by the calcium phosphate method. See M. D. Summers and G. E. Smith, A Manual of Methods for Baculovirus Vectors and Insect Cell Culture Procedures, Texas Agric. Exp. Station Bull. 1555 (1987). Recombinant viruses were purified by three rounds of plaque purification and high titer (10^7–10^8 pfu/ml) stocks of virus were prepared. For large scale production, SF9 insect cells were infected in 10 liter fermentors (0.5×10^6/ml) with the recombinant baculovirus stock such that the multiplicity of infection was 0.1. After 72 hours the cells were centrifuged and the cell pellet homogenized in Tris/Sucrose (50 mM: 25%, pH 8.0) containing 1% 3-[(3-cholamidopropyl)dimethylammonio]-1-propanesulfonate (CHAPS). The homogenate was centrifuged at 10,000×G for 30 minutes, and the resultant supernatant was stored at −80° C. before being assayed for COX activity. […]
(§2) b. Assay for COX-1 and COX-2 Activity
(§3) COX activity was assayed as PGE2 formed/μg protein/time using an ELISA to detect the prostaglandin released. CHAPS-solubilized insect cell membranes containing the appropriate COX enzyme were incubated in a potassium phosphate buffer (50 mM, pH 8.0) containing epinephrine, phenol, and heme with the addition of arachidonic acid (10 μM). Compounds were pre-incubated with the enzyme for 10–20 minutes prior to the addition of arachidonic acid. Any reaction between the arachidonic acid and the enzyme was stopped after ten minutes at 37° C./room temperature by transferring 40 μl of reaction mix into 160 μl ELISA buffer and 25 μM indomethacin. The PGE2 formed was measured by standard ELISA technology (Cayman Chemical).

[2] = target: T1, COX-2 (UniProt P35354); test: Assay for COX-2 activity in vitro (PGE2 ELISA, recombinant enzyme); format: biochemical, human or murine; settings: recombinant COX-2, arachidonic acid 10 μM, pre-incubation 10–20 minutes
T1 sequence (P35354 1-604): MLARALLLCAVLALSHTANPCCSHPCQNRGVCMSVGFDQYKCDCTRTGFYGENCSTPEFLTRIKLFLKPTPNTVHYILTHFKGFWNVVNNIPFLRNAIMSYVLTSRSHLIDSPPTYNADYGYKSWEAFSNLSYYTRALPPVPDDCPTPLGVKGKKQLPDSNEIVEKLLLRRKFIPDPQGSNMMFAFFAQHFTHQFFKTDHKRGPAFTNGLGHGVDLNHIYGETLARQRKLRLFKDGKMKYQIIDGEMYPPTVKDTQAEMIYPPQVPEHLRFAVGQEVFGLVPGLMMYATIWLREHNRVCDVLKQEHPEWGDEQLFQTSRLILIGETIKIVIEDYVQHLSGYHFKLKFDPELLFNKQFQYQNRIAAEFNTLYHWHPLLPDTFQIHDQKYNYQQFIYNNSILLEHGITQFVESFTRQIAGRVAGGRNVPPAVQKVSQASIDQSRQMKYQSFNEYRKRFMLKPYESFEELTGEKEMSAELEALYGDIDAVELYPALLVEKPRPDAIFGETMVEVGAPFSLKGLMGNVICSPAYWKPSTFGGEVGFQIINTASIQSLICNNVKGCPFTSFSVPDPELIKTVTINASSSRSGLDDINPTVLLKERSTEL
Experimental: Evaluation of COX-1 and COX-2 Activity in vitro
The COX-2 inhibit on activity of the compounds or this invention illustrated in the Examples was determined by the following methods. a. Preparation of Recombinant COX Baculoviruses
as §1, §2, §3

[3] = target: T2, 5-lipoxygenase (5-LO) (Homo sapiens, UniProt P09917); test: Assay for 5-lipoxygenase activity: calcium ionophore-induced LTB4 production in human whole blood; format: cell-based; settings: A-23187 (20 μg/ml)-induced LTB4 in human whole blood; mean IC50
T2 construct: calcium ionophore-induced Leukotriene B4 (LTB4) production in human whole blood; endogenous in cells; host or cells: human whole blood (healthy donors), diluted 1:4 in RPMI 1640
T2 sequence (P09917 1-674): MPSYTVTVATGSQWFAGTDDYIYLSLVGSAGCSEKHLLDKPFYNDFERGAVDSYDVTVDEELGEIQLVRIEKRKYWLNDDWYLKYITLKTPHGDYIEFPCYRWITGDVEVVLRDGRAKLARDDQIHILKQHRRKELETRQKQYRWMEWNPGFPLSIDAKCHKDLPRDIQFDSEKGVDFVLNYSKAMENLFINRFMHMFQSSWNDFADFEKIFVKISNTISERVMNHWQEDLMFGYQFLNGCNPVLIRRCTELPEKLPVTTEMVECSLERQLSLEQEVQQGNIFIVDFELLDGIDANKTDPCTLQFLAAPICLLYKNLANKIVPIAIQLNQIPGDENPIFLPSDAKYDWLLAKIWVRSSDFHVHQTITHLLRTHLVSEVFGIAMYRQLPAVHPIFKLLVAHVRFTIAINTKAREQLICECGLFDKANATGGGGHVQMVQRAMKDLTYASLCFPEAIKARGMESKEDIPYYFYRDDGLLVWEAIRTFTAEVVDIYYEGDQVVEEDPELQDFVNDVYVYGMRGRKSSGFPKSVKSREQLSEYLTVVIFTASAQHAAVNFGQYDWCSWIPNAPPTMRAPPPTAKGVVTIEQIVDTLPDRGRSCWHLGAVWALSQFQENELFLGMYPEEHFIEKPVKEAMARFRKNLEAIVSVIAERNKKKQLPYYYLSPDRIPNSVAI
Experimental: Assay for 5-Lipoxygenase Activity
The 5-lipoxygenase (5-LO) activity of the compounds were determined by the calcium ionophore-induced Leukotriene B4 (LTB4) production in human whole blood. Venous blood was collected from healthy human donors using heparin as an anti-coagulant. Human blood samples (0.2 ml of a 1:4 dilution in RPMI 1640 medium) were incubated in 96-well culture plates for 15 minutes at 37° C. with test compounds dissolved in ethanol (EtOH; final concentration<1%), or vehicle. Typically 7 concentrations of test compounds were examined in duplicate. A-23187 [Sigma] was added to the blood to a final concentration of 20 μg/ml, and the mixtures were incubated for 10 minutes at 37° C. The reaction was stopped by placing the samples on ice. The samples were then centrifuged at 800×g at 4° C. for 10 minutes to pellet the cells, and the supernatants were recovered for quantitation of LTB4 by LISA (Cayman Chemical Co.; sensitivity 3 pg/ml). IC50's were estimated from a four parameter logistic model with two parameters fixed, the minimum (0% inhibition) and maximum (100% inhibition). The IC50 value is the concentration that produces 50% inhibition between the fixed values of the minimum and maximum. Data is reported as the mean IC50 for each compound.

SMILES	IC50 [1] [µM]	IC50 [2] [µM]	IC50 [3] [µM]	melting point [°C]
COC1(c2cc(F)cc(OCc3cc(-c4ccc(Cl)cc4)n(-c4ccc(S(N)(=O)=O)cc4)n3)c2)CCOCC1 [Example 1, 4-[5-(4-Chlorophenyl)-3-[[3-fluoro-5-(3,4,5,6-tetrahydro-4-methoxy-2H-pyran-4-yl)phenoxy]methyl]-1H-pyrazol-1-yl]benzenesulfonamide]	38	< 0.1	0.15	
COC1(c2cccc(OCc3nc(-c4ccc(F)cc4)c(-c4ccc(S(C)(=O)=O)cc4)o3)c2)CCOCC1 [Example 2, 4-(4-Fluorophenyl)-5-(4-(methylsulfonyl)phenyl)-2-[[3-(3,4,5,6-tetrahydro-4-methoxy-2H-pyran-4-yl)phenoxy]methyl]oxazole]	> 10	0.2	0.05	
COC1(c2cc(F)cc(Oc3nc(-c4ccccc4)c(-c4ccc(S(N)(=O)=O)cc4)o3)c2)CCOCC1 [Example 4, 4-[2-[3-Fluoro-5-(4-methoxy-3,4,5,6-tetrahydro-2H-pyran-4-yl)phenoxy]-4-phenyl-5-oxazolyl]benzenesulfonamide]	< 0.1	< 0.1	14	159 to 161
COC1(c2cccc(Oc3nc(-c4ccccc4)c(-c4ccc(S(N)(=O)=O)cc4)o3)c2)CCOCC1 [Example 5, 4-[2-[3-(4-Methoxy-3,4,5,6-tetrahydro-2H-pyran-4-yl)phenoxy]-4-phenyl-5-oxazolyl]benzenesulfonamide]	< 0.1	< 0.1	17	145 to 147
COc1cccc(SCc2cc(-c3ccc(Cl)cc3)n(-c3ccc(S(N)(=O)=O)cc3)n2)c1 [Example 6, 4-[5-(4-Chlorophenyl)-3-(3-methoxyphenyl)thiomethyl-1H pyrazol-1-yl]benzenesulfonamide]	2.2	< 0.1	0.44	
COc1cccc(OCc2cc(-c3ccc(Cl)cc3)n(-c3ccc(S(N)(=O)=O)cc3)n2)c1 [Example 7, 4-[5-(4-Chlorophenyl)-3-(3-methoxyphenyl)oxymethyl-1H-pyrazol-1-yl]benzenesulfonamide]	3.8	< 0.1	0.65	
COC1(c2cc(F)cc(OCc3nc(-c4ccccc4)c(-c4ccc(S(N)(=O)=O)cc4)o3)c2)CCOCC1 [Example 8, 4-[2-[[3-Fluoro-5-(3,4,5,6-tetrahydro-4-methoxypyran-4-yl)phenoxy]methyl]-4-phenyloxazol-5-yl]benzenesulfonamide]	1.3	< 0.1	0.3	70 to 80
COC(=O)C(Cc1cccc(C2(OC)CCOCC2)c1)c1nc(-c2ccccc2)c(-c2ccc(S(N)(=O)=O)cc2)o1 (stereo not drawn) [Example 9, Methyl 5-[4-(aminosulfonyl)phenyl]-α-[[3-(3,4,5,6-tetrahydro-4-methoxypyran-4-yl)phenyl]methyl]-4-phenyloxazole-2-acetate]	80	10	> 10	88.7 to 94.9
COC1(c2cc(F)cc(OCC#Cc3ccc(Cc4nc(-c5ccccc5)c(-c5ccc(S(N)(=O)=O)cc5)o4)cc3)c2)CCOCC1 [Example 12, 4-[2-[[4-[3-[3-Fluoro-5-(3,4,5,6-tetrahydro-4-methoxypyran-4-yl)phenoxy]-1-propynyl]phenyl]methyl]-4-phenyloxazol-5-yl]benzenesulfonamide]	> 100	< 0.1	> 10	86 to 100
COC1(c2cc(F)cc(OCc3nc(-c4ccc(F)cc4)c(-c4ccc(S(N)(=O)=O)cc4)o3)c2)CCOCC1 [Example 14, 4-[2-[[3-Fluoro-5-(3,4,5,6-tetrahydro-4-methoxypyran-4-yl)phenoxy]methyl]-4-(4-fluorophenyl)oxazol-5-yl]benzenesulfonamide]	5	< 0.1	0.2	70 to 72
COC1(c2cc(F)cc(OCc3onc(-c4ccccc4)c3-c3ccc(S(N)(=O)=O)cc3)c2)CCOCC1 [Example 16, 4-[5-[[3-Fluoro-5-(3,4,5,6-tetrahydro-4-methoxypyran-4-yl)phenoxy]methyl]-3-phenylisoxazol-4-yl]benzenesulfonamide]	> 100	< 0.1	> 10	
COC1(c2cccc(COCc3nc(-c4ccccc4)c(-c4ccc(S(N)(=O)=O)cc4)o3)c2)CCOCC1 [Example 17, 4-[2-[[[3-(3,4,5,6-Tetrahydro-4-methoxypyran-4-yl)phenylmethyl]oxy]methyl]-4-phenyloxazol-5-yl]benzenesulfonamide]	> 100	0.5	9.8	62.1 to 71.2
COC1(c2cccc(CSCc3nc(-c4ccccc4)c(-c4ccc(S(N)(=O)=O)cc4)o3)c2)CCOCC1 [Example 18, 4-[2-[[[3-(3,4,5,6-Tetrahydro-4-methoxypyran-4-yl)phenylmethyl]thio]methyl]-4-phenyloxazol-5-yl]benzenesulfonamide]				77.2 to 81.7
COC1(c2cc(F)cc(OCC(=O)NCCc3nc(-c4ccccc4)c(-c4ccc(S(N)(=O)=O)cc4)o3)c2)CCOCC1 [Example 22]	> 100	1.1	> 10	
